Experimental data: the Deep4Chem optical property database

Assay: solvent given as SMILES

C(=C1c2ccccc2-c2ccccc21)c1ccc(-c2ccc(C=C3c4ccccc4-c4ccccc43)cc2)cc1
absorption maximum (in C1CCOC1): 366 nm

Cc1cc(=O)oc2cc(/[NH+]=C/C=C3/C=C(C(=O)O)NC(C(=O)O)C3)ccc12 (stereo not drawn)
absorption maximum (in O): 520 nm

CCCCCCCCCCCCOc1cc2c(cc1OCCCCCCCCCCCC)C1=C3C(=O)N4C=Cc5cc(OCCCCCCCCCCCC)c(OCCCCCCCCCCCC)cc5C4=C3C(=O)N1C=C2
absorption maximum (in CN(C)C=O): 592 nm | absorption maximum (in ClC(Cl)Cl): 590 nm

CCCCCCCCCn1c(-c2cc(-c3nc4ccccc4n3CCCCCCCCC)cc(-c3nc4ccccc4n3CCCCCCCCC)c2)nc2ccccc21
absorption maximum (in ClCCl): 300 nm

Cc1ccccc1C1=C2C=c3c(oc4c3ccc3ccccc34)=[N+]2[B-](F)(F)n2c1cc1c3ccc4ccccc4c3oc12
absorption maximum (in C1CCCCC1): 613 nm | absorption maximum (in CCOC(C)=O): 607 nm | absorption maximum (in CO): 605.5 nm

CCOC(=O)c1ccc(C2=C(c3ccccc3)c3oc4ccccc4[n+]3[B-](F)(F)O2)cc1
absorption maximum (in C1CCOC1): 350 nm

Nc1ccc2c(c1)C(=O)c1ccccc1-2
absorption maximum (in C1CCCCC1): 455 nm | absorption maximum (in CC#N): 481 nm | absorption maximum (in CCO): 488 nm | absorption maximum (in c1ccccc1): 469 nm

O=C1C2=C3c4ccsc4C=CN3C(=O)C2=C2c3ccsc3C=CN12
absorption maximum (in CN(C)C=O): 575 nm | absorption maximum (in ClC(Cl)Cl): 575 nm

CCOC(=O)/C=C/C1=C(c2ccc(C)cc2)C2=Nc3c(-c4ccc(C)cc4)c(-c4ccc(OC)cc4)c(-c4ccc(C)cc4)n3[B-](F)(F)[N+]2=C1c1ccc(C)cc1
absorption maximum (in ClC(Cl)Cl): 673 nm

CCN(CC)c1ccc(/C=N/c2ccccc2/N=C/c2ccc(N(CC)CC)cc2O)c(O)c1
absorption maximum (in CC#N): 442 nm | absorption maximum (in CN(C)C=O): 490 nm | absorption maximum (in ClCCl): 442 nm

CCN(CC)c1cc2sc3cc(N(CC)CC)c(F)cc3c(=O)c2cc1F
absorption maximum (in CCO): 393 nm

CC(C)[Si](C#Cc1c2cc3ccccc3cc2c(C#C[Si](C(C)C)(C(C)C)C(C)C)c2nc3ccccc3nc12)(C(C)C)C(C)C
absorption maximum (in CCCCCC): 693 nm | absorption maximum (in ClCCl): 697 nm

F[B-]1(F)n2c(Oc3ccccc3)c(Cl)c(Br)c2C(Oc2ccccc2)=C2C(Br)=C(Cl)C(Oc3ccccc3)=[N+]21
absorption maximum (in ClCCl): 533 nm

CCCCCCc1ccc(/C=C/c2ccc(CCCCCC)s2)s1
absorption maximum (in Cc1ccccc1): 356 nm

CCCCN1C(=S)c2cccc3c(OC)ccc(c23)C1=S
absorption maximum (in CC#N): 476 nm | absorption maximum (in CS(C)=O): 483 nm | absorption maximum (in Cc1ccccc1): 468 nm

COc1ccc(-c2[nH]c(=O)n3c2-c2ccccc2C3=O)c(OC)c1
absorption maximum (in CC#N): 401 nm | absorption maximum (in CO): 401 nm | absorption maximum (in ClCCl): 406 nm

CCCCOc1c(C#N)cc2cc(C#N)c(OCCCC)c3c4c(OCCCC)c(C#N)cc5cc(C#N)c(OCCCC)c(c1c23)c54
absorption maximum (in ClCCl): 454 nm

CCC1=C(C2=C(C3=C(CC)S(=O)(=O)c4ccccc43)C(F)(F)C(F)(F)C2(F)F)c2ccccc2S1(=O)=O
absorption maximum (in C1COCCO1): 310 nm

CCCCN1C(=O)c2cc(Oc3ccc(C(C)(C)C)cc3)c3c4c(Oc5ccc(C(C)(C)C)cc5)cc5c(=O)n6c(c7cc(Oc8ccc(C(C)(C)C)cc8)c(c8c(Oc9ccc(C(C)(C)C)cc9)cc(c2c38)C1=O)c4c57)=Cc1ccc2ccccc2[n+]1[B-]6(F)F
absorption maximum (in ClCCl): 648 nm

Cc1ccc(C2CC(=O)Oc3c2c2nc4ccc(C)cc4nc2c2ccccc32)cc1 (stereo not drawn)
absorption maximum (in ClC(Cl)Cl): 411 nm

Cc1ccc(N(c2ccc(C)cc2)c2ccc(-c3ccc4c(c3)C(=O)c3ccccc3C4=O)cc2)cc1
absorption maximum (in C1CCOC1): 463 nm | absorption maximum (in CCCCCC): 457 nm | absorption maximum (in CCOC(C)=O): 461 nm | absorption maximum (in CCOCC): 459 nm | absorption maximum (in Cc1ccccc1): 470 nm | absorption maximum (in ClC(Cl)(Cl)Cl): 474 nm | absorption maximum (in ClCCl): 476 nm

COC(=O)c1[nH]c(-c2ccc(OC)cc2)c2nnc3ccc(OC)cc3c12
absorption maximum (in ClCCl): 401 nm

O=C1c2ccccc2-c2c(-c3ccccc3)c(-c3ccccc3)c(-c3ccccc3)c3cccc1c23
absorption maximum (in CC#N): 401 nm | absorption maximum (in CO): 407 nm

CCOC(=O)/N=c1/oc2cc(N(CC)CC)ccc2cc1C#N
absorption maximum (in ClCCl): 440 nm

CCCCOc1ccc(-c2cc3c(o2)c(-c2ccc(OCCCC)cc2)c2n3[B-](F)(F)[N+]3=Cc4c(-c5ccc(OCCCC)cc5)c5oc(-c6ccc(OCCCC)cc6)cc5n4[B-](F)(F)[N+]3=C2)cc1
absorption maximum (in C1CCOC1): 619 nm | absorption maximum (in CN(C)C=O): 620 nm | absorption maximum (in CS(C)=O): 625 nm | absorption maximum (in Cc1ccccc1): 626 nm | absorption maximum (in ClC(Cl)Cl): 624 nm | absorption maximum (in ClCCl): 622 nm

CC(C)[Si](C#Cc1c2nc3c(nc2c(C#C[Si](C(C)C)(C(C)C)C(C)C)c2nc4c(nc12)C1c2ccccc2C4c2ccccc21)C1c2ccccc2C3c2ccccc21)(C(C)C)C(C)C
absorption maximum (in CCCCCC): 450 nm

Cc1c2c(c(C)c3ccccc13)-c1cc3nc4ccccc4nc3cc1-2
absorption maximum (in ClC(Cl)Cl): 448 nm

O=[N+]([O-])c1cccc2c1ccc1[n+]2[B-](F)(F)n2c-1cc1c3ccccc3c3ccccc3c12
absorption maximum (in ClCCl): 518 nm

C(#Cc1ncc(-c2ccccc2)o1)c1cccnc1
absorption maximum (in ClCCl): 330 nm

CC1=c2cc3c(cc2=[N+]2C1=Cc1c4ccccc4c(C)n1[B-]2(F)F)C1=Cc2c4ccccc4c(C)n2[B-](F)(F)[N+]1=C3C
absorption maximum (in ClC(Cl)Cl): 848 nm

Cc1ccc(-c2c3nc(c(-c4ccc(C)cc4)c4ccc([nH]4)c(-c4ccc(OC(=O)C(C)c5ccc(CC(C)C)cc5)cc4)c4nc(c(-c5ccc(C)cc5)c5ccc2[nH]5)C=C4)C=C3)cc1 (stereo not drawn)
absorption maximum (in ClCCl): 649 nm

CC1=C(Cl)C(/C=C/c2ccc3c(c2)c2ccccc2n3Cc2cn(CCC[P+](c3ccccc3)(c3ccccc3)c3ccccc3)nn2)=[N+]2C1=C(c1ccc(I)cc1)c1c(C)c(Cl)c(C)n1[B-]2(F)F
absorption maximum (in CCO): 612 nm

COc1ccc(-n2c3ccccc3c3c(C)cc4ccccc4c32)cc1
absorption maximum (in ClCCl): 303 nm

COc1ccccc1C1=[N+]2C(=Cc3c4cc5ccccc5cc4c(-c4ccccc4OC)n3[B-]2(F)F)c2cc3ccccc3cc21
absorption maximum (in C1CCOC1): 738 nm

CCCCCN1c2ccccc2Sc2cc(/C=C/c3ccc(/C=C(\C#N)C(=O)O)s3)ccc21
absorption maximum (in ClCCl): 494 nm

CC(C)(C)c1ccc(-c2nc(-c3ccc(C(C)(C)C)cc3)nc(-c3cc(C#N)c(-n4c5ccccc5c5c6oc7ccccc7c6ccc54)c(C#N)c3)n2)cc1
absorption maximum (in C1CCOC1): 397.48 nm

Cc1ccc(-c2cc(-c3ccccc3)c3c(N)nc(N4CCCC4)c(C#N)c3n2)cc1
absorption maximum (in CC#N): 412 nm | absorption maximum (in CC(C)=O): 414 nm | absorption maximum (in CC(C)O): 414 nm | absorption maximum (in CO): 414 nm | absorption maximum (in ClC(Cl)Cl): 420 nm | absorption maximum (in ClCCl): 420 nm | absorption maximum (in c1ccccc1): 424 nm

CN(C)c1ccc(-c2ccc(-c3cc(-c4ccccc4)c(-c4ccccc4)c(-c4ccccc4)c3-c3ccccc3)s2)cc1
absorption maximum (in ClC(Cl)Cl): 362 nm

N#CC1=CC(C#Cc2ccccc2)=CC(C#N)=P1(c1ccccc1)c1ccccc1
absorption maximum (in ClC(Cl)Cl): 489 nm

CC(C)CCCCN1CCc2c1ccc1c3c(ccc21)C(=O)CCC3
absorption maximum (in C1CCCCC1): 362 nm | absorption maximum (in CC#N): 370 nm | absorption maximum (in CC(C)O): 376 nm | absorption maximum (in CCC(C)=O): 368 nm | absorption maximum (in CCO): 374 nm | absorption maximum (in CCOC(C)=O): 366 nm | absorption maximum (in CS(C)=O): 376 nm | absorption maximum (in Cc1ccccc1): 368 nm | absorption maximum (in ClCCl): 373 nm | absorption maximum (in Clc1ccccc1): 370 nm

CC[n+]1nc2cc3c4c(c2c2cc(C)ccc21)CCCN4CCC3
absorption maximum (in O): 500 nm

CN(C)c1cc(-c2ccccc2)cc2ccccc12
absorption maximum (in ClCCl): 318 nm
